Test results from patent US10703764B2, “Benzopiperazine compositions as BET bromodomain inhibitors” (FORMA Therapeutics, Inc., priority 2013, dated 2020).

How the values were obtained:
[1] = target: T1, BRD4 BD2 (Homo sapiens, UniProt O60885); experiment: AlphaScreen binding assay, BRD4 Bromodomain 2
T1 construct: made in house
In short: (§1)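 An AlphaScreen competition format was used with His-BRD4 BD1 or BD2 and biotin-H4 K5/8/12/16-acetyl peptide, each at matched final levels of 50 nM (BD1) or 100 nM (BD2). Incubation in HEPES/NaCl buffer with 0.1% BSA and 0.01% Triton X-100 ran ≥1 h before IC50 determination.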

[2] = tested on: MV4-11 cells; experiment: Oncology cell growth assay (3-day proliferation, CellTiter-Glo); format: cell-based; conditions: Homo sapiens, MV4-11, 72 h, AML cell line MV4-11, 72 hours, compounds grouped by IC50 range, read-out: MV4-11 IC50 (inhibition of proliferation, gIC50)
Protocol: The impact of Example compounds on cancer cell proliferation was determined using the acute myelocytic leukemia (AML) cell line MV4-11 (ATCC) in a 3-day proliferation assay. MV4-11 cells were maintained in RPMI 1640 media supplemented with 10% FBS at 37° C. and an atmosphere of 5% CO2. For compound testing, compound dilutions series were prepared in DMSO via a 3-fold serial dilution from 2 mM to 0.001 mM in 384-well white flat bottom plates. The final compound concentrations in the wells were 10, 3.3, 1.1, 0.37, 0.12, 0.041, 0.013 and 0.0045 μM. MV4-11 cells were plated at a density of 3000 cells/well in final volume of 50 μl culture media and incubated for 72 hours. […] Luminescent signal from the CellTiter-Glo assay was read on an EnVision multilabel plate reader (PerkinElmer). Values for the concentration that inhibited cell growth by 50% (gIC50) between the DMSO control and background control (no cells) were determined using IDBS Activity Base software with a four parameter logistic curve fit by the equation y=A+((B−A)/(1+((C/x)^D))), wherein A denotes the bottom plateau of the curve, B denotes the top plateau of the curve, C denotes the x value at the middle of the curve, D denotes the slope factor, x denotes the original known x values, and y denotes the original known y values. Data was fitted using the Levenburg Marquardt algorithm.

[3] = target: T2, BRD4 BD1 (Homo sapiens, UniProt O60885); experiment: AlphaScreen binding assay, BRD4 Bromodomain 1
T2 construct: made in house
In short: as §1

SMILES	IC50 [1]	IC50 [2]	IC50 [3]
CC(=O)N1c2ccc(-c3cnn(C4CCOCC4)c3)cc2N(C(=O)OC2CCC(F)(F)CC2)C[C@@H]1C [Example I-2, (S)-4,4-difluorocyclohexyl 4-acetyl-3-methyl-7-(1-(tetrahydro-2H-pyran-4-yl)-1H-pyrazol-4-yl)-3,4-dihydroquinoxaline-1(2H)-carboxylate]	50 to 500 nM	100 to 500 nM	100 to 1000 nM
COc1ccccc1OC(=O)N1C[C@H](C)N(C(C)=O)c2ccc(-c3cnn(C4COC4)c3)cc21 [Example I-3, (S)-2-methoxyphenyl 4-acetyl-3-methyl-7-(1-(oxetan-3-yl)-1H-pyrazol-4-yl)-3,4-dihydroquinoxaline-1(2H)-carboxylate]	50 to 500 nM	< 100 nM	100 to 1000 nM
CC(=O)N1c2ccc(-c3cnn(C4CCOCC4)c3)cc2N(C(=O)OC2CC(F)(F)C2)C[C@@H]1C [Example I-4, (S)-3,3-difluorocyclobutyl 4-acetyl-3-methyl-7-(1-(tetrahydro-2H-pyran-4-yl)-1H-pyrazol-4-yl)-3,4-dihydroquinoxaline-1(2H)-carboxylate]	50 to 500 nM	100 to 500 nM	100 to 1000 nM
CC(=O)N1c2ccc(-c3ccc(S(C)(=O)=O)cc3)cc2N(C(=O)OC2CC(F)(F)C2)C[C@@H]1C [Example I-5, (S)-3,3-difluorocyclobutyl 4-acetyl-3-methyl-7-(4-(methylsulfonyl)phenyl)-3,4-dihydroquinoxaline-1(2H)-carboxylate]	50 to 500 nM	100 to 500 nM	100 to 1000 nM
CC(=O)N1c2ccc(-c3cnn(C4CC4)c3)cc2N(C(=O)C2CC2)C[C@@H]1C [Example I-8, (S)-1-(4-(cyclopropanecarbonyl)-6-(1-cyclopropyl-1H-pyrazol-4-yl)-2-methyl-3,4-dihydroquinoxalin-1(2H)-yl)ethanone]	< 50 nM	100 to 500 nM	100 to 1000 nM
CCOC(=O)N1C[C@H](C)N(C(C)=O)c2ccc(-c3cnn(C4COC4)c3)cc21 [Example I-9, (S)-ethyl 4-acetyl-3-methyl-7-(1-(oxetan-3-yl)-1H-pyrazol-4-yl)-3,4-dihydro-quinoxaline-1(2H)-carboxylate]	50 to 500 nM	100 to 500 nM	100 to 1000 nM
CC(=O)N1c2ccc(-c3cnn(C4COC4)c3)cc2N(C(=O)C2CC2)C[C@@H]1C [Example I-10, (S)-1-(4-(cyclopropanecarbonyl)-2-methyl-6-(1-(oxetan-3-yl)-1H-pyrazol-4-yl)-3,4-dihydroquinoxalin-1(2H)-yl)ethanone]	50 to 500 nM	100 to 500 nM	100 to 1000 nM
CC(=O)N1c2ccc(-c3cnn(CCO)c3)cc2N(C(=O)OC(C)C)C[C@@H]1C [Example I-12, (S)-isopropyl 4-acetyl-7-(1-(2-hydroxyethyl)-1H-pyrazol-4-yl)-3-methyl-3,4-dihydroquinoxaline-1(2H)-carboxylate]	< 50 nM	100 to 500 nM	< 100 nM
CC(=O)N1c2ccc(-c3cn[nH]c3)cc2N(C(=O)c2ccco2)C[C@@H]1C [Example I-13, (S)-1-(4-(furan-2-carbonyl)-2-methyl-6-(1H-pyrazol-4-yl)-3,4-dihydro-quinoxalin-1(2H)-yl)ethanone]	< 50 nM	100 to 500 nM	100 to 1000 nM
CC(=O)N1c2ccc(-c3cnn(C4CCNC(=O)C4)c3)cc2N(C(=O)OC(C)C)C[C@@H]1C (stereo partly drawn) [Example I-166, propan-2-yl (3S)-4-acetyl-3-methyl-7-[1-(2-oxopiperidin-4-yl)-1H-pyrazol-4-yl]-1,2,3,4-tetrahydroquinoxaline-1-carboxylate]	–	100 to 500 nM	100 to 1000 nM
CC(=O)N1c2ccc(-c3cnn(C4CCNC(=O)C4)c3)cc2N(C(=O)C2CC2)C[C@@H]1C (stereo partly drawn) [Example I-167, 4-{4-[(2S)-1-acetyl-4-cyclopropanecarbonyl-2-methyl-1,2,3,4-tetrahydroquinoxalin-6-yl]-1H-pyrazol-1-yl}piperidin-2-one]	–	100 to 500 nM	100 to 1000 nM
CC(=O)N1c2ccc(-c3cnn(C4CCS(=O)(=O)CC4)c3)cc2N(C(=O)OCC2CC2)C[C@@H]1C [Example I-169, cyclopropylmethyl (3S)-4-acetyl-7-[1-(1,1-dioxo-1λ^6-thian-4-yl)-1H-pyrazol-4-yl]-3-methyl-1,2,3,4-tetrahydroquinoxaline-1-carboxylate]	–	> 500 nM	100 to 1000 nM
CC(=O)N1c2ccc(-c3cnn(C4CN[C@@H]4C)c3)cc2N(C(=O)OC2CCC2)C[C@@H]1C (stereo partly drawn) [Example I-170, cyclobutyl (3S)-4-acetyl-3-methyl-7-{1-[(2R)-2-methylazetidin-3-yl]-1H-pyrazol-4-yl}-1,2,3,4-tetrahydroquinoxaline-1-carboxylate]	–	100 to 500 nM	100 to 1000 nM
CC(=O)N1c2ccc(-c3cnn([C@@H]4CCCS(=O)(=O)C4)c3)cc2N(C(=O)OCC2CC2)C[C@@H]1C [Example I-171, cyclopropylmethyl (3S)-4-acetyl-7-{1-[(3R)-1,1-dioxo-1λ^6-thian-3-yl]-1H-pyrazol-4-yl}-3-methyl-1,2,3,4-tetrahydroquinoxaline-1-carboxylate]	–	> 500 nM	100 to 1000 nM
CC(=O)N1c2ccc(-c3cnn([C@H]4CCCS(=O)(=O)C4)c3)cc2N(C(=O)OCC2CC2)C[C@@H]1C [Example I-172, cyclopropylmethyl (3S)-4-acetyl-7-{1-[(3S)-1,1-dioxo-1λ^6-thian-3-yl]-1H-pyrazol-4-yl}-3-methyl-1,2,3,4-tetrahydroquinoxaline-1-carboxylate]	–	> 500 nM	100 to 1000 nM
CC(=O)N1c2ccc(-c3cnn([C@@H]4CCCS(=O)(=O)C4)c3)cc2N(C(=O)OC2CCC2)C[C@@H]1C [Example I-173, cyclobutyl (3S)-4-acetyl-7-{1-[(3R)-1,1-dioxo-1λ^6-thian-3-yl]-1H-pyrazol-4-yl}-3-methyl-1,2,3,4-tetrahydroquinoxaline-1-carboxylate]	–	< 100 nM	100 to 1000 nM
CC(=O)N1c2ccc(-c3cnn([C@H]4CCCS(=O)(=O)C4)c3)cc2N(C(=O)OC2CCC2)C[C@@H]1C [Example I-174, cyclobutyl (3S)-4-acetyl-7-{1-[(3S)-1,1-dioxo-1λ^6-thian-3-yl]-1H-pyrazol-4-yl}-3-methyl-1,2,3,4-tetrahydroquinoxaline-1-carboxylate]	–	< 100 nM	< 100 nM
CC(=O)N1c2ccc(-c3cnn(C4CCNC(=O)C4)c3)cc2N(C(=O)OC2CCC2)C[C@@H]1C (stereo partly drawn) [Example I-175, cyclobutyl (3S)-4-acetyl-3-methyl-7-[1-(2-oxopiperidin-4-yl)-1H-pyrazol-4-yl]-1,2,3,4-tetrahydroquinoxaline-1-carboxylate]	–	< 100 nM	< 100 nM
CC(=O)N1c2ccc(-c3cnn(C4CN[C@H]4C)c3)cc2N(C(=O)OC2CCC2)C[C@@H]1C (stereo partly drawn) [Example I-178, cyclobutyl (3S)-4-acetyl-3-methyl-7-{1-[(2S)-2-methylazetidin-3-yl]-1H-pyrazol-4-yl}-1,2,3,4-tetrahydroquinoxaline-1-carboxylate]	–	100 to 500 nM	100 to 1000 nM
CC(=O)N1c2ccc(-c3ccc(C(=O)NCCN)cc3)cc2N(C(=O)OC(C)C)C[C@@H]1C [Example I-480]	–	100 to 500 nM	100 to 1000 nM
CC(C)OC(=O)N1C[C@H](C)N(C(=O)C2CC2)c2ccc(-c3ccc(C(=O)N(C)CC(=O)N(C)C)cc3)cc21 [Example I-560]	–	100 to 500 nM	100 to 1000 nM
